The text below walks through data of ChEMBL document CHEMBL1125639, “Synthesis and resolution of (+-)-7-chloro-8-hydroxy-1-(3'-iodophenyl)-3-methyl-2,3,4,5-tetrahydro- 1H-3- benzazepine (TISCH): a high affinity and selective iodinated ligand for CNS D1 dopamine receptor” (J Med Chem, 1991).

This assay is filed under the species Rattus norvegicus. The assay is classed as functional, Striatum, Membrane.

Description: Inhibition constant of compound on R-(+)-125[I]-8 radioligand binding to rat striatal membranes

In turn, `CN1CCc2cc(Cl)c(O)cc2C(c2cccc(I)c2)C1` (racemic) gave a Ki of 1.07 nM.

As to `NCCc1ccc(O)c(O)c1` [DOPAMINE], the Ki was greater than 3000 nM.

On to `C=CCN1CC[C@]23c4c5ccc(O)c4O[C@H]2C(=O)CC[C@@]3(O)[C@H]1C5` [NALOXONE], for which the Ki was greater than 6000 nM.

As for `CN1CCc2cc(Cl)c(O)cc2[C@@H](c2ccccc2)C1` [SCH-23390], the affinity corresponds to a Ki of 0.28 nM.

`NCCc1c[nH]c2ccc(O)cc12` [SEROTONIN] came in with an inhibitory constant (Ki) greater than 5000 nM.

What is called Ki is a measure of affinity in units of concentration, obtained from inhibition or displacement. A lower Ki goes with higher affinity.
